# pIC50: −log10 of the molar value.
# Tested on: 699152-130-R-J1-PDC complex spheroid viability
# Test: Anticancer human tumor 699152-130-R-J1-PDC patient-derived pancreatic carcinoma cell line growth inhibition [POLQ]
# Settings: for pIC50: curve of first compound; for viability, T/C: stronger effect = lower value
# In short: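 Growth inhibition in 3D: complex spheroids (tumor PDC, HUVEC, MSC) treated with POLQ inhibitor combinations; where Cmax unknown, highest tested concentration 10 microM, except SN-38 at 1 microM.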
# [1] = second compound 0.0316 µM, first compound 0.00316 µM
# [2] = second compound 0.0316 µM, first compound 0.01 µM
# [3] = second compound 0.0316 µM, first compound 0.0316 µM
# [4] = second compound 0.0316 µM, first compound 0.1 µM
# [5] = second compound 0.0316 µM, first compound 0.316 µM
# [6] = second compound 0.0316 µM, first compound 1 µM
# [7] = second compound 0.1 µM, first compound 0.00316 µM
# [8] = second compound 0.1 µM, first compound 0.01 µM
# [9] = second compound 0.1 µM, first compound 0.0316 µM
# [10] = second compound 0.1 µM, first compound 0.1 µM
# [11] = second compound 0.1 µM, first compound 0.316 µM
# [12] = second compound 0.1 µM, first compound 1 µM
# [13] = second compound 0.316 µM, first compound 0.00316 µM
# [14] = second compound 0.316 µM, first compound 0.01 µM
# [15] = second compound 0.316 µM, first compound 0.0316 µM
# [16] = second compound 0.316 µM, first compound 0.1 µM
# [17] = second compound 0.316 µM, first compound 0.316 µM
# [18] = second compound 0.316 µM, first compound 1 µM
# [19] = second compound 1 µM, first compound 0.00316 µM
# [20] = second compound 1 µM, first compound 0.01 µM
# [21] = second compound 1 µM, first compound 0.0316 µM
# [22] = second compound 1 µM, first compound 0.1 µM
# [23] = second compound 1 µM, first compound 0.316 µM
# [24] = second compound 1 µM, first compound 1 µM
# [25] = second compound 3.16 µM, first compound 0.00316 µM
# [26] = second compound 3.16 µM, first compound 0.01 µM
# [27] = second compound 3.16 µM, first compound 0.0316 µM
# [28] = second compound 3.16 µM, first compound 0.1 µM
# [29] = second compound 3.16 µM, first compound 0.316 µM
# [30] = second compound 3.16 µM, first compound 1 µM
# [31] = second compound 10 µM, first compound 0.00316 µM
# [32] = second compound 10 µM, first compound 0.01 µM
# [33] = second compound 10 µM, first compound 0.0316 µM
# [34] = second compound 10 µM, first compound 0.1 µM
# [35] = second compound 10 µM, first compound 0.316 µM
# [36] = second compound 10 µM, first compound 1 µM
# 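Also: spheroids exposed to agents for 7 days before viability reading.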
# 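For viability, T/C in this document: percent of DMSO vehicle control viability so 100% = vehicle and 0% = no viable signal.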
structure (smiles),measurement,setting,value
C=CCn1c(=O)c2cnc(Nc3ccc(N4CCN(C)CC4)cc3)nc2n1-c1cccc(C(C)(C)O)n1 + Cc1cccc(N(C)C(=O)C2C(O)CCN2c2nc(C)cc(C(F)(F)F)c2C#N)c1,pIC50,second compound 0.0316 µM,< 6.00
same,pIC50,second compound 0.1 µM,< 6.00
same,pIC50,second compound 0.316 µM,< 6.00
same,pIC50,second compound 1 µM,< 6.00
same,pIC50,second compound 3.16 µM,< 6.00
same,pIC50,second compound 10 µM,< 6.00
same,"viability, T/C",[1],94.8%
same,"viability, T/C",[2],91%
same,"viability, T/C",[3],87.4%
same,"viability, T/C",[4],86.9%
same,"viability, T/C",[5],80.3%
same,"viability, T/C",[6],73%
same,"viability, T/C",[7],87.9%
same,"viability, T/C",[8],90.2%
same,"viability, T/C",[9],95.6%
same,"viability, T/C",[10],83.9%
same,"viability, T/C",[11],82.2%
same,"viability, T/C",[12],68.7%
same,"viability, T/C",[13],88.8%
same,"viability, T/C",[14],91.4%
same,"viability, T/C",[15],89.4%
same,"viability, T/C",[16],82.7%
same,"viability, T/C",[17],85.4%
same,"viability, T/C",[18],69.8%
same,"viability, T/C",[19],96.5%
same,"viability, T/C",[20],85.2%
same,"viability, T/C",[21],102%
same,"viability, T/C",[22],84%
same,"viability, T/C",[23],80.2%
same,"viability, T/C",[24],67%
same,"viability, T/C",[25],83.3%
same,"viability, T/C",[26],107%
same,"viability, T/C",[27],97.6%
same,"viability, T/C",[28],99.2%
same,"viability, T/C",[29],81.7%
same,"viability, T/C",[30],65.4%
same,"viability, T/C",[31],84.8%
same,"viability, T/C",[32],89.3%
same,"viability, T/C",[33],89.2%
same,"viability, T/C",[34],86.7%
same,"viability, T/C",[35],78.1%
same,"viability, T/C",[36],73.9%
COc1cccc(OCCCN)c1-c1cc(Nc2cnc(C#N)cn2)n[nH]1 + Cc1cccc(N(C)C(=O)C2C(O)CCN2c2nc(C)cc(C(F)(F)F)c2C#N)c1,pIC50,second compound 0.0316 µM,< 6.00
same,pIC50,second compound 0.1 µM,< 6.00
same,pIC50,second compound 0.316 µM,< 6.00
same,pIC50,second compound 1 µM,< 6.00
same,pIC50,second compound 3.16 µM,< 6.00
same,pIC50,second compound 10 µM,< 6.00
same,"viability, T/C",[1],93%
same,"viability, T/C",[2],75.7%
same,"viability, T/C",[3],64.7%
same,"viability, T/C",[4],63.1%
same,"viability, T/C",[5],50.8%
same,"viability, T/C",[6],51.2%
same,"viability, T/C",[7],89.4%
same,"viability, T/C",[8],85.7%
same,"viability, T/C",[9],67.4%
same,"viability, T/C",[10],58.1%
same,"viability, T/C",[11],55.5%
same,"viability, T/C",[12],49.1%
same,"viability, T/C",[13],100%
same,"viability, T/C",[14],91.3%
same,"viability, T/C",[15],61.5%
same,"viability, T/C",[16],59.6%
same,"viability, T/C",[17],54.5%
same,"viability, T/C",[18],46.7%
same,"viability, T/C",[19],92.8%
same,"viability, T/C",[20],90.7%
same,"viability, T/C",[21],61.2%
same,"viability, T/C",[22],54.1%
same,"viability, T/C",[23],52.8%
same,"viability, T/C",[24],48.7%
same,"viability, T/C",[25],86.3%
same,"viability, T/C",[26],86.4%
same,"viability, T/C",[27],67.2%
same,"viability, T/C",[28],56.3%
same,"viability, T/C",[29],51.2%
same,"viability, T/C",[30],57.3%
same,"viability, T/C",[31],98.1%
same,"viability, T/C",[32],88%
same,"viability, T/C",[33],61.6%
same,"viability, T/C",[34],59%
same,"viability, T/C",[35],58.4%
same,"viability, T/C",[36],56.1%
CNCc1ccc(-c2[nH]c3cc(F)cc4c3c2CCNC4=O)cc1 + COC1C(OC(N)=O)C(O)C(Oc2ccc3c(O)c(NC(=O)c4ccc(O)c(CC=C(C)C)c4)c(=O)oc3c2C)OC1(C)C,pIC50,second compound 0.0316 µM,< 5.00
same,pIC50,second compound 0.1 µM,< 5.00
same,pIC50,second compound 0.316 µM,< 5.00
same,pIC50,second compound 1 µM,< 5.00
same,pIC50,second compound 3.16 µM,< 5.00
same,pIC50,second compound 10 µM,< 5.00
same,"viability, T/C",[3],94.8%
same,"viability, T/C",[4],95.1%
same,"viability, T/C",[5],101%
same,"viability, T/C",[6],106%
same,"viability, T/C","second compound 0.0316 µM, first compound 3.16 µM",126%
same,"viability, T/C","second compound 0.0316 µM, first compound 10 µM",123%
same,"viability, T/C",[9],96.4%
same,"viability, T/C",[10],95.6%
same,"viability, T/C",[11],92.9%
same,"viability, T/C",[12],120%
same,"viability, T/C","second compound 0.1 µM, first compound 3.16 µM",115%
same,"viability, T/C","second compound 0.1 µM, first compound 10 µM",130%
same,"viability, T/C",[15],102%
same,"viability, T/C",[16],103%
same,"viability, T/C",[17],106%
same,"viability, T/C",[18],97.8%
same,"viability, T/C","second compound 0.316 µM, first compound 3.16 µM",118%
same,"viability, T/C","second compound 0.316 µM, first compound 10 µM",125%
same,"viability, T/C",[21],101%
same,"viability, T/C",[22],94.9%
same,"viability, T/C",[23],107%
same,"viability, T/C",[24],98%
same,"viability, T/C","second compound 1 µM, first compound 3.16 µM",113%
same,"viability, T/C","second compound 1 µM, first compound 10 µM",114%
same,"viability, T/C",[27],103%
same,"viability, T/C",[28],105%
same,"viability, T/C",[29],93.8%
same,"viability, T/C",[30],98.2%
same,"viability, T/C","second compound 3.16 µM, first compound 3.16 µM",133%
same,"viability, T/C","second compound 3.16 µM, first compound 10 µM",93.6%
same,"viability, T/C",[33],102%
same,"viability, T/C",[34],88.3%
same,"viability, T/C",[35],107%
same,"viability, T/C",[36],101%
same,"viability, T/C","second compound 10 µM, first compound 3.16 µM",125%
same,"viability, T/C","second compound 10 µM, first compound 10 µM",108%
Cn1ncnc1[C@H]1c2n[nH]c(=O)c3cc(F)cc(c23)N[C@@H]1c1ccc(F)cc1 + Nc1ccc(C#CCN(C(=O)Cc2ncc(C(F)(F)F)cc2C(F)(F)F)c2ccc(F)cc2)nn1,pIC50,second compound 0.0316 µM,< 7.00
same,pIC50,second compound 0.1 µM,< 7.00
same,pIC50,second compound 0.316 µM,< 7.00
same,pIC50,second compound 1 µM,< 7.00
same,pIC50,second compound 3.16 µM,< 7.00
same,pIC50,second compound 10 µM,< 7.00
same,"viability, T/C","second compound 0.0316 µM, first compound 0.000316 µM",102%
same,"viability, T/C","second compound 0.0316 µM, first compound 0.001 µM",86.8%
same,"viability, T/C",[1],89.6%
same,"viability, T/C",[2],97.1%
same,"viability, T/C",[3],87%
same,"viability, T/C",[4],82.2%
same,"viability, T/C","second compound 0.1 µM, first compound 0.000316 µM",106%
same,"viability, T/C","second compound 0.1 µM, first compound 0.001 µM",89.1%
same,"viability, T/C",[7],87.5%
same,"viability, T/C",[8],101%
same,"viability, T/C",[9],96%
same,"viability, T/C",[10],82.8%
same,"viability, T/C","second compound 0.316 µM, first compound 0.000316 µM",102%
same,"viability, T/C","second compound 0.316 µM, first compound 0.001 µM",91.6%
same,"viability, T/C",[13],103%
same,"viability, T/C",[14],85.4%
same,"viability, T/C",[15],92.6%
same,"viability, T/C",[16],77.5%
same,"viability, T/C","second compound 1 µM, first compound 0.000316 µM",102%
same,"viability, T/C","second compound 1 µM, first compound 0.001 µM",102%
same,"viability, T/C",[19],89.4%
same,"viability, T/C",[20],98.8%
same,"viability, T/C",[21],104%
same,"viability, T/C",[22],76.5%
same,"viability, T/C","second compound 3.16 µM, first compound 0.000316 µM",90.7%
same,"viability, T/C","second compound 3.16 µM, first compound 0.001 µM",98%
same,"viability, T/C",[25],105%
same,"viability, T/C",[26],94.7%
same,"viability, T/C",[27],91.7%
same,"viability, T/C",[28],89.5%
same,"viability, T/C","second compound 10 µM, first compound 0.000316 µM",103%
same,"viability, T/C","second compound 10 µM, first compound 0.001 µM",106%
same,"viability, T/C",[31],108%
same,"viability, T/C",[32],95.2%
same,"viability, T/C",[33],101%
same,"viability, T/C",[34],99.6%
